Consider 4 compounds from paper PMC9002841, “Characterization of Promising Cytotoxic Metabolites from Tabebuia guayacan Hemsl.: Computational Prediction and In Vitro Testing” (Plants, 2022).

One assay has as its target T1, CDK2/CyclinA2 (Homo sapiens, UniProt P24941).
T1 construct: purchased #79599
Briefly: In vitro CDK-2 inhibitory activity (Kinase-Glo MAX kinase assay). The settings on record: mean ± SD. Type of assay: biochemical. The text has this:
(§1) The Assay Kits are designed to measure CDK2/CyclinA2 and VEGFR-2 (KDR) activities for screening and profiling applications, using Kinase-Glo® MAX as a detection reagent. The CDK-2 Assay Kit comes in a convenient 96-well format, with enough purified recombinant CDK2/CyclinA2 enzyme, CDK substrate peptide, ATP, and kinase assay buffer for 100 enzyme reactions, while the VEGFR-2 Assay Kit comes in a convenient 96-well format, with enough purified recombinant VEGFR-2 (KDR) enzyme, PTK substrate, ATP, and kinase assay buffer for 100 enzyme reactions. […] The CDK2/CyclinA2 and VEGFR-2 (KDR) activities at a single dose concentration of 10µM were performed, where the Kinase-Glo MAX luminescence kinase assay kit (Promega#V6071) was used. The compounds were diluted in 10% DMSO and 5 µL of the dilution was added to a 50 µL reaction so that the final concentration of DMSO was 1% in all of the reactions. All of the enzymatic reactions were conducted at 30 °C for 45 min. […] After the enzymatic reactions, 50 µL of Kinase-Glo® MAX Luminescence kinase assay solution was added to each reaction and the plates were incubated for 15 min at room temperature. Luminescence signal was measured using a Bio Tek Synergy 2 microplate reader.
(§2) Data were analyzed using one-way analysis of variance (ANOVA) for multiple comparison between all compounds followed by Tukey–Kramer post-ANOVA test. […]

For the next assay, the target named is T2, CDK6/Cyclin D3 (Homo sapiens, UniProt Q00534).
T2 construct: purchased Promega V4489
Briefly: In vitro CDK-6 inhibitory activity (ADP-Glo kinase assay). In kind it is biochemical. Particulars: mean ± SD. As for the experimental part: Data were analyzed using one-way analysis of variance (ANOVA) for multiple comparison between all compounds followed by Tukey–Kramer post-ANOVA test. The differences were considered statistically significant at p < 0.05.
Background: In ADP-Glo the light output rises with the ADP produced.

A further assay concerns the target T3, VEGFR-2 (KDR) (Homo sapiens, UniProt P35968).
T3 construct: purchased #40325
Briefly: In vitro VEGFR-2 inhibitory activity (Kinase-Glo MAX kinase assay). In kind it is biochemical. The settings on record: mean ± SD.
Excerpt: as §1, §2

In the next assay the test system is topoisomerase-1. Particulars: cited from earlier work.

T2 sequence (Q00534 whole entry): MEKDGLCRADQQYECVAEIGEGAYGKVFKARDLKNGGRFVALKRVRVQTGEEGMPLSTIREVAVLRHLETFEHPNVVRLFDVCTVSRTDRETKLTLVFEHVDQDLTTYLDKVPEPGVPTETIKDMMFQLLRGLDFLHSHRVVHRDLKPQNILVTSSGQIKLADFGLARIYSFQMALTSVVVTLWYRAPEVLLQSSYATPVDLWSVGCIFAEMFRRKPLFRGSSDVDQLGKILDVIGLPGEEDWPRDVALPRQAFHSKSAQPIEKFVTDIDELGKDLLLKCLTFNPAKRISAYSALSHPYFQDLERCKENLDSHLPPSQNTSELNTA
T2 sequence (P30281 whole entry partner): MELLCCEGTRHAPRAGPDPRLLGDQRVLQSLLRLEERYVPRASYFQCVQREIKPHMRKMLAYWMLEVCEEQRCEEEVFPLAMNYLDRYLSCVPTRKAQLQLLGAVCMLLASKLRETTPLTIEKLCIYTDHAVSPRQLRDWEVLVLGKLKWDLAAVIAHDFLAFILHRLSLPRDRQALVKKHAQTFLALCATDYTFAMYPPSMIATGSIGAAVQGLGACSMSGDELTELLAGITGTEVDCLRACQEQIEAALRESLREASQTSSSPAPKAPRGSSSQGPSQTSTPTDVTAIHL
T3 sequence (P35968 20-1356): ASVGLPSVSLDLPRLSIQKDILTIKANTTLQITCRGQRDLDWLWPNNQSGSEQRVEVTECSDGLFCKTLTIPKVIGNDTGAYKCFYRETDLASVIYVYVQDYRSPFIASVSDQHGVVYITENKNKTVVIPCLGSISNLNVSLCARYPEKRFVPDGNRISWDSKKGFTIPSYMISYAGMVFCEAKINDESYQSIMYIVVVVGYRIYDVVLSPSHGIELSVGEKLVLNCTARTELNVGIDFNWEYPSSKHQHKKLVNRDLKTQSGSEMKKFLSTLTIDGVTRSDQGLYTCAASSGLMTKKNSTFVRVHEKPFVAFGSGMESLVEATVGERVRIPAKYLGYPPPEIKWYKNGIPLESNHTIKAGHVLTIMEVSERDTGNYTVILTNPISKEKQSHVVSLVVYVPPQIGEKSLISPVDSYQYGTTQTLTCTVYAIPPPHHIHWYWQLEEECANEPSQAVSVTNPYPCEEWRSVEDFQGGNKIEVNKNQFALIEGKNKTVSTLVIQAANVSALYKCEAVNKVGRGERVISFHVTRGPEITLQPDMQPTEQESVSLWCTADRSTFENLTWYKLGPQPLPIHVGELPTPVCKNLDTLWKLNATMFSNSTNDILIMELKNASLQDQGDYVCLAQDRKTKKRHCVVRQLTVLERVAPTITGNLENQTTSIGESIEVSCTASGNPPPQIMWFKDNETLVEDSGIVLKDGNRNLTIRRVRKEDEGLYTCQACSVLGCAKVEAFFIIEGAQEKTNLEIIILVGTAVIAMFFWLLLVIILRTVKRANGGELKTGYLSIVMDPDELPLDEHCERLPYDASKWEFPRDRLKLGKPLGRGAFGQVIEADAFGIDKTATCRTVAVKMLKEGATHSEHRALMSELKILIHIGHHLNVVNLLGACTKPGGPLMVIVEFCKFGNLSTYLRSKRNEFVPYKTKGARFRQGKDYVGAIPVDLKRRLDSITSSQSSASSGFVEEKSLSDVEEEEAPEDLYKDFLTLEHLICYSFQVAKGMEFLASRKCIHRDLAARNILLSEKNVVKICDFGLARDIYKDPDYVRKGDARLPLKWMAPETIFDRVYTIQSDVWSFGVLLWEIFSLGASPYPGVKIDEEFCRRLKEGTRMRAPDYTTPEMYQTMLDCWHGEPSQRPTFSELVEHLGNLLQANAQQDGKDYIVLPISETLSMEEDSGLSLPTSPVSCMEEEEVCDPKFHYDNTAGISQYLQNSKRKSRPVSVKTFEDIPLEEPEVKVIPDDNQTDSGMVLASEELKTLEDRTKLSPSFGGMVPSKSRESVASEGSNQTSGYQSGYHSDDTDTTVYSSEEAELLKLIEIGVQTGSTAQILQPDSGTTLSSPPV

Consider `CC[C@H](CC[C@@H](C)[C@H]1CC[C@H]2[C@@H]3CC=C4C[C@@H](O)CC[C@]4(C)[C@H]3CC[C@]12C)C(C)C` [Compound 1, β-sitosterol], for which the IC50 at CDK2/CyclinA2 is 581 nM.

In the case of `C[C@H]1[C@H](C)CC[C@]2(C(=O)O)CC[C@]3(C)C(=CC[C@@H]4[C@@]5(C)C[C@@H](O)[C@H](O)C(C)(C)[C@@H]5CC[C@]43C)[C@H]12` [Compound 3, corosolic acid], the IC50 on CDK2/CyclinA2 is 239 nM.

`O=c1c(OC2OCC(O)C(O)C2O)c(-c2ccc(O)c(O)c2)oc2cc(O)cc(O)c12` (stereo not drawn) [Compound 10, quercetin 3-O-β-xyloside]: the results for the IC50 against CDK6/Cyclin D3 and at VEGFR-2 (KDR) were 355 nM and 193 nM, respectively.

Regarding `O=c1cc(-c2ccc(O)c(O)c2)oc2cc(OC3O[C@@H](CO)[C@H](O)[C@@H](O)[C@@H]3O)cc(O)c12` (stereo partly drawn) [Compound 16, luteolin-7-O-β-glucoside], the “inhibitory activity against topoisomerase-1” value with topoisomerase-1 is reported as “especially poisonous”.

One may read the IC50 as the concentration needed to halve the response being measured.
